Reference: ChEMBL document CHEMBL1201862, “PubChem BioAssay data set” (2004)
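Five compound concentrations were applied to cells in 96-well plates for 48 hours; endpoints were derived by simple linear interpolation of the resulting dose-response curve. GI50 is the concentration that inhibits growth by half.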 Activity calls are given as the source filed them. Rule as the data show it: active = GI50 up to about 1.1 µM and inactive = higher.

Assays:
Test in all cases: growth of human tumour cells (NCI), 48 h
DMS-114 = system: DMS-114
DMS-273 = system: DMS-273
HCC 2998 = system: HCC 2998
HT-29 = system: HT-29
KM-20L2 = system: KM-20L2
LOX IMVI = system: LOX IMVI
Malme-3M = system: Malme-3M
NCI-H23 = system: NCI-H23
NCI-H460 = system: NCI-H460
OVCAR-8 = system: OVCAR-8
SNB-19 = system: SNB-19
SNB-75 = system: SNB-75
SNB-78 = system: SNB-78
SR = system: SR
UACC-62 = system: UACC-62
UO-31 = system: UO-31
HOP-18 = system: HOP-18
IGROV-1 = system: IGROV-1

Measured: GI50

N#C/C(=C/c1ccc[nH]1)P(=O)(O)O
inactive: DMS-114 > 100 µM | DMS-273 > 100 µM | HCC 2998 > 100 µM | HT-29 > 100 µM | KM-20L2 > 100 µM | LOX IMVI > 100 µM | Malme-3M > 100 µM | NCI-H23 > 100 µM | NCI-H460 > 100 µM | OVCAR-8 > 100 µM | SNB-19 > 100 µM | SNB-75 80.4 µM | SNB-78 > 100 µM | SR > 100 µM | UACC-62 > 100 µM | UO-31 > 100 µM

Cc1nc2ccccc2c(=O)n1/N=C(\N=N\c1ccccc1Cl)c1ccccc1Cl
inactive: DMS-114 26.4 µM | DMS-273 44.8 µM | HOP-18 28 µM | HT-29 53.6 µM | IGROV-1 42.1 µM | KM-20L2 76.7 µM | LOX IMVI 86.5 µM | NCI-H23 34 µM | NCI-H460 73.5 µM | OVCAR-8 > 100 µM | UACC-62 58.9 µM | UO-31 36.1 µM

Cc1nc2c(s/c(=N\N)n2-c2ccccc2)c(=O)[nH]1
inactive: DMS-114 > 100 µM | DMS-273 > 100 µM | HCC 2998 > 100 µM | HT-29 > 100 µM | IGROV-1 > 100 µM | KM-20L2 > 100 µM | LOX IMVI > 100 µM | Malme-3M > 100 µM | NCI-H23 > 100 µM | NCI-H460 > 100 µM | OVCAR-8 > 100 µM | SNB-19 > 100 µM | SNB-75 > 100 µM | SNB-78 > 100 µM | SR > 100 µM | UACC-62 > 100 µM | UO-31 > 100 µM

CCCN1CN(C(C(=O)N[C@@H]2C(=O)N3C(C(=O)O)=C(C)CSC23)c2ccccc2)CSC1=S (some centres not stated)
inactive: DMS-273 > 100 µM | HOP-18 > 100 µM | HT-29 > 100 µM | IGROV-1 > 100 µM | KM-20L2 > 100 µM | LOX IMVI 47.4 µM | Malme-3M > 100 µM | NCI-H23 > 100 µM | NCI-H460 42.5 µM | OVCAR-8 > 100 µM | SNB-19 > 100 µM | SNB-75 > 100 µM | SNB-78 > 100 µM | UACC-62 > 100 µM | UO-31 > 100 µM

CC(C)(O)[C@H](CCO)O[Si](c1ccccc1)(c1ccccc1)C(C)(C)C
inactive: DMS-273 10.1 µM | HCC 2998 6.01 µM | HOP-18 3.1 µM | HT-29 11.1 µM | IGROV-1 12.2 µM | KM-20L2 11.2 µM | LOX IMVI 11.1 µM | Malme-3M 17.1 µM | NCI-H23 > 10 µM | NCI-H460 11.2 µM | OVCAR-8 10.9 µM | SNB-19 6.01 µM | SNB-75 10.9 µM | SNB-78 15 µM | SR 4.93 µM | UACC-62 11.3 µM | UO-31 11 µM

NNc1nnc(-c2ccccc2)nc1Cc1ccccc1
inactive: DMS-114 3.17 µM | DMS-273 7.26 µM | HCC 2998 3.39 µM | HOP-18 2.03 µM | HT-29 8.3 µM | IGROV-1 10.9 µM | KM-20L2 3.84 µM | LOX IMVI 3.56 µM | Malme-3M 3.56 µM | NCI-H23 6.03 µM | NCI-H460 4.17 µM | OVCAR-8 4.52 µM | SNB-19 6.62 µM | SR 4.43 µM | UACC-62 3.62 µM | UO-31 3.81 µM

O=c1c2ccccc2nc(-c2ccccc2)n1NC(=S)Nc1ccccc1
inactive: DMS-114 14.3 µM | DMS-273 > 100 µM | HOP-18 > 100 µM | HT-29 > 100 µM | IGROV-1 > 100 µM | LOX IMVI 91 µM | Malme-3M > 100 µM | NCI-H23 > 100 µM | NCI-H460 > 100 µM | OVCAR-8 > 100 µM | SNB-75 38.3 µM | SR > 100 µM | UACC-62 > 100 µM | UO-31 81.7 µM

O=c1c2ccccc2nc(-c2ccccc2Cl)n1NCC1(O)OCC(O)C(O)C1O (configuration not stated)
inactive: DMS-114 > 100 µM | DMS-273 > 100 µM | HT-29 > 100 µM | KM-20L2 > 100 µM | LOX IMVI > 100 µM | Malme-3M > 100 µM | NCI-H23 > 100 µM | NCI-H460 > 100 µM | OVCAR-8 > 100 µM | SNB-19 > 100 µM | SNB-75 62.2 µM | SNB-78 > 100 µM | SR > 100 µM | UACC-62 > 100 µM | UO-31 > 100 µM

Cn1c(=O)n(C2(C)C[Se]C2)c2ccccc21
inactive: DMS-273 > 100 µM | HCC 2998 65.3 µM | HT-29 > 100 µM | IGROV-1 > 100 µM | KM-20L2 > 100 µM | LOX IMVI > 100 µM | NCI-H23 > 100 µM | NCI-H460 > 100 µM | OVCAR-8 > 100 µM | SNB-19 > 100 µM | SNB-75 > 100 µM | SNB-78 > 100 µM | SR > 100 µM | UACC-62 > 100 µM | UO-31 > 100 µM

Cc1cc2oc(-c3ccccc3)c(C)c(=O)c2c2c1OC(C)(C)S2
inactive: DMS-114 83.9 µM | DMS-273 71.9 µM | HCC 2998 > 100 µM | HOP-18 > 100 µM | HT-29 34.2 µM | IGROV-1 > 100 µM | KM-20L2 55.5 µM | LOX IMVI > 100 µM | Malme-3M > 100 µM | NCI-H23 > 100 µM | NCI-H460 92.7 µM | OVCAR-8 > 100 µM | SNB-19 > 100 µM | SNB-75 > 100 µM | SR 29.6 µM | UACC-62 > 100 µM | UO-31 > 100 µM

COc1ccc(Nc2nc(C#N)c(N)s2)cc1
inactive: DMS-273 26.7 µM | HCC 2998 > 10 µM | HT-29 46.8 µM | IGROV-1 76.6 µM | KM-20L2 38.5 µM | LOX IMVI 21.4 µM | Malme-3M 91.2 µM | NCI-H23 22.5 µM | NCI-H460 > 100 µM | OVCAR-8 78.5 µM | SNB-19 49 µM | SNB-75 > 100 µM | SNB-78 > 100 µM | UACC-62 23.1 µM | UO-31 40.8 µM

CCOC(=O)C(C(=O)OCC)P(=S)(S)c1ccccc1 (configuration not stated)
inactive: DMS-114 > 100 µM | DMS-273 > 100 µM | HT-29 > 100 µM | IGROV-1 > 100 µM | KM-20L2 > 100 µM | LOX IMVI > 100 µM | Malme-3M > 100 µM | NCI-H23 > 100 µM | NCI-H460 > 100 µM | OVCAR-8 > 100 µM | SNB-19 > 100 µM | SR > 100 µM | UACC-62 > 100 µM | UO-31 > 100 µM

OC1CCC[C@@H]1Sc1ccccc1 (some centres not stated)
inactive: DMS-114 > 100 µM | DMS-273 > 100 µM | HCC 2998 > 100 µM | KM-20L2 > 100 µM | LOX IMVI > 100 µM | NCI-H23 > 100 µM | NCI-H460 > 100 µM | OVCAR-8 > 100 µM | SNB-19 > 100 µM | SNB-75 > 100 µM | SNB-78 > 100 µM | SR > 100 µM | UACC-62 57.8 µM | UO-31 > 100 µM
